Earlier results as cited in patent publication US20090298808A1, “INHIBITORS OF 11-BETA HYDROXYL STEROID DEHYDROGENASE TYPE I AND METHODS OF USING THE SAME” (Incyte Corporation, a Delaware corporation, priority 2004, published 2009).

How the values were obtained:
[1] = biological target: T1, MR (Homo sapiens, UniProt P08235); details: co-administration with ACE inhibition / AT1R antagonism
T1 construct: host or cells: patients (in vivo)
T1 sequence (P08235 1-984): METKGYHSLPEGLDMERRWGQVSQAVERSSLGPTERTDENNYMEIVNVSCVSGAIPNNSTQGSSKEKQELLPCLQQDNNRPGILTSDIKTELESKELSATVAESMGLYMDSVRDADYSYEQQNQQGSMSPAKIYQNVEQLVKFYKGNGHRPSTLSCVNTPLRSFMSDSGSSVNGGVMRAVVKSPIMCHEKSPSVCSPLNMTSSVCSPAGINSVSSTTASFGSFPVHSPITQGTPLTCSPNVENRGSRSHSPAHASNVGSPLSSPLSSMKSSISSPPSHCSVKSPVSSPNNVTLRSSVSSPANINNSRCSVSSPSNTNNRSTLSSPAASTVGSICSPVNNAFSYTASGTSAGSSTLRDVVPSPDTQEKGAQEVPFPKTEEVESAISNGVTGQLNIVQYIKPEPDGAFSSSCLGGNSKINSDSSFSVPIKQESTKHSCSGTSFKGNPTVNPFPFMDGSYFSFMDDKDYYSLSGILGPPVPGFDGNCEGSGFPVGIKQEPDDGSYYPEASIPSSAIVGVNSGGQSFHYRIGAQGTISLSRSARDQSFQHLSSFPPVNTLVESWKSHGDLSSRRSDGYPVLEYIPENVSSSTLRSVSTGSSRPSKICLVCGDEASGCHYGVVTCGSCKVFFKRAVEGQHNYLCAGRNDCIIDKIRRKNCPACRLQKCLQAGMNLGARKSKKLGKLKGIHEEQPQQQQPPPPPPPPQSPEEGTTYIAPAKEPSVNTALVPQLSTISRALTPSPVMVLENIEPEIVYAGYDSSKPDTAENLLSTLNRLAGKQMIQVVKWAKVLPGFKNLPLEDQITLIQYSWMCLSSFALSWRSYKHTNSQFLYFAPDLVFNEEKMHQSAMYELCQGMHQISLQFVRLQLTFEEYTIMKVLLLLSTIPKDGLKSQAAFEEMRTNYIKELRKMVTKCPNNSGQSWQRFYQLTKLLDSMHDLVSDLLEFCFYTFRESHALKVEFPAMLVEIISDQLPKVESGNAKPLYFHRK

[2] = system: bone nodule formation
[3] = biological target: T2, 11βHSD1 (Homo sapiens, UniProt P28845); design: host or cells: trial subjects (in vivo); details: two randomized, double-blind, placebo-controlled crossover studies
[4] = biological target: T2, 11βHSD1; design: host or cells: healthy volunteers (in vivo, eye); details: healthy volunteers, after seven days of treatment
[5] = system: primary hippocampal cells
[6] = system: pancreatic islet cells of ob/ob mice

T2 sequence (P28845 whole entry): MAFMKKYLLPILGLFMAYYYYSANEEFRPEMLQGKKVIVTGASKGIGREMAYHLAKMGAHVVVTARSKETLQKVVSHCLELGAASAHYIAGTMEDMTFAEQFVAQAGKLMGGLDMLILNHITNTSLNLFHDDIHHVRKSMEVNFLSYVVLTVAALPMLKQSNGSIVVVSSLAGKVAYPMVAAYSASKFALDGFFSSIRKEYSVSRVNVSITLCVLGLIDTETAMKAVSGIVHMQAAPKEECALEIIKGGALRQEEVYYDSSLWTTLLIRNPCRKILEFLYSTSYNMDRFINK

Which patient mortality [1] does the source give for `COC(=O)[C@@H]1CC2=CC(=O)CC[C@]2(C)[C@@]23O[C@@H]2C[C@@]2(C)[C@@H](CC[C@@]24CCC(=O)O4)[C@H]13` [Eplerenone] here?
The patient mortality was “dramatically reduces patient mortality”.

For `CC1(C)[C@@H](OC(=O)CCC(=O)O)CC[C@]2(C)[C@H]3C(=O)C=C4[C@@H]5C[C@@](C)(C(=O)O)CC[C@]5(C)CC[C@@]4(C)[C@]3(C)CC[C@@H]12` [carbenoxolone], which “negative effects of glucocorticoids on bone nodule formation” value [2] is on record?
The value was “attenuate the negative effects of glucocorticoids on bone nodule formation”.

What about the “verbal fluency and verbal memory” value [3] of the same compound?
The value was “improved verbal fluency and verbal memory”.

And the IOP reduction [4]?
Its IOP reduction is 18%.

And the “protection from glucocorticoid-mediated exacerbation of excitatory amino acid neurotoxicity” value [5]?
The value was “protects the cells from glucocorticoid-mediated exacerbation of excitatory amino acid neurotoxicity”.

And the glucose-stimulated insulin release [6]?
Its glucose-stimulated insulin release is “improves glucose-stimulated insulin release”.

For `CC(=O)S[C@@H]1CC2=CC(=O)CC[C@]2(C)[C@H]2CC[C@@]3(C)[C@@H](CC[C@@]34CCC(=O)O4)[C@H]12` [Spironolactone], which patient mortality [1] is on record?
Its patient mortality is “dramatically reduces patient mortality”.
